For orientation: inhibition means the change of the read-out against control, counted positive when it falls.

One assay addresses T1, Cannabinoid CB2 Receptor (Homo sapiens, UniProt P34972).
T1 construct: expressed in transfected cells; semi-purified membrane pellet
The assay can be described thus: Binding assay, cannabinoid CB2 receptor ([3H]-CP-55,940 displacement, SK-N-MC cell membranes). The note with it: test concentration of 0.2 μM; human CB2 in SK-N-MC membranes; read-out: Cannabinoid CB2 Receptor Binding, percent inhibition. Summed up:
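Membranes from SK-N-MC cells stably expressing human CB2 were incubated 90 min at 30 °C with 0.2 nM [3H]-CP-55,940 in Tris buffer, pH 7.5, with BSA; 10 uM WIN 55,212 defined non-specific binding. Filter-bound counts gave IC50 by linear regression, or % inhibition at 0.2 μM.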

For the next assay, the target named is T2, Cannabinoid CB1 Receptor (Homo sapiens, UniProt P21554).
T2 construct: expressed in transfected cells; semi-purified membrane pellet
T2 sequence (P21554 whole entry): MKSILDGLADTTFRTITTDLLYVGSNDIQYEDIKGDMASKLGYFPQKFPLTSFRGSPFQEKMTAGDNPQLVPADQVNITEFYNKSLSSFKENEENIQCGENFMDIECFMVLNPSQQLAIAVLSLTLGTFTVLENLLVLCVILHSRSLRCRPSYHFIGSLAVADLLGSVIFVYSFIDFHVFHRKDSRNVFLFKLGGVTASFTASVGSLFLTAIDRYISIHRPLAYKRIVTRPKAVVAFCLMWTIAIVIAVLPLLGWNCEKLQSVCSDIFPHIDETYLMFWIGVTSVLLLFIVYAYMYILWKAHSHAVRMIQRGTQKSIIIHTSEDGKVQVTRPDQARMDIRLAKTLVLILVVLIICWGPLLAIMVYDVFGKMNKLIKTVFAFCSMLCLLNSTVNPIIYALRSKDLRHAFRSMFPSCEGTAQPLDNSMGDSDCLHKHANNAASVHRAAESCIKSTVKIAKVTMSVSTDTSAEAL
The experiment in a line: Binding assay, cannabinoid CB1 receptor ([3H]-CP-55,940 displacement, SK-N-MC cell membranes). The conditions noted are these: test concentration of 0.2 μM; human CB1 in SK-N-MC membranes; read-out: Cannabinoid CB1 Receptor Binding, percent inhibition.

T1 sequence (P34972 whole entry): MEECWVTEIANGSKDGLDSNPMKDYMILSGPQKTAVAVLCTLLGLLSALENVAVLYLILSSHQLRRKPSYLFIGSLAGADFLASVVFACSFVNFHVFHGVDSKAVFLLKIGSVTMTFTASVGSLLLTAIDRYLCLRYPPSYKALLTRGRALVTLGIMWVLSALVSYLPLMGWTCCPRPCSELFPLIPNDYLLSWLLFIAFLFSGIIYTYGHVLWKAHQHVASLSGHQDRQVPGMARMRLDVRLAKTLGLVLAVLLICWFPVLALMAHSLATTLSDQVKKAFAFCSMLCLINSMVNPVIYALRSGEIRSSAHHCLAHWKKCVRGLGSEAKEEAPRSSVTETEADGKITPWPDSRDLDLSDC

For the compound `CN1CCN(NC(=O)c2nn(-c3ccc(Cl)cc3Cl)c3c2COC/C3=C\c2ccc(F)cc2)CC1` [Cpd 30, (7Z)-1-(2,4-dichloro-phenyl)-7-(4-fluoro-benzylidene)-1,4,6,7-tetrahydro-pyrano[4,3-c]pyrazole-3-carboxylic acid (4-methyl-piperazin-1-yl)-amide], the inhibition at 0.2 µM at Cannabinoid CB2 Receptor was determined as 0%; at Cannabinoid CB1 Receptor it was 3%.
